Experiments:
Pdr5 = target: T1, Pdr5 (Saccharomyces cerevisiae, UniProt P33302); experiment: Pdr5 ATPase assay (oligomycin-sensitive) in plasma membrane preparations; assay type: biochemical; conditions: highest concentrations (10 mM), in comparison to Pdr5 WT in the absence of any compound
T1 construct: effect on (A) the transport activity of Pdr5 WT and (B) their effect on the ATPase activity; made in house; host or cells: S. cerevisiae YRE1001 (pdr1-3 background), isolated plasma membranes
Description: Saccharomyces cerevisiae cells expressing Pdr5 WT or the E1036Q (EQ) mutant were cultured to an OD600 of 1.5 in YPD-media at 25°C. The nitrogen source was replenished by addition of a 10th volume of 5x YP (50 g/l yeast extract, 100 g/l peptone). The cells were grown to an OD of 3.5 and harvested (5000 ×g at 4°C for 15 min). The isolation of Pdr5 containing PMs was performed as described ([Kolaczkowski et al., 1996]; [Ernst et al., 2008]).
Oligomycin (OM)-sensitive ATPase activity was measured from 0.8 μg PM containing Pdr5 incubated with 2 mM ATP, 5 mM MgCl2 in 270 mM TRIS-glycine buffer (pH 9.5) and 2.5 μl of the test compounds or DMSO as a control in a total volume of 100 μl. To reduce the background activities, 0.2 mM ammonium molybdate, 10 mM NaN3 and 50 mM KNO3, respectively, were added ([Dufour et al., 1988]; [Goffeau and Dufour, 1988]). In a second assay, OM (20 μg/ml) was added to an otherwise identical setup. After incubation at 30°C for 20 min, the reaction was stopped by adding 25 μl of the reaction to 175 μl 40 mM H2SO4. The amount of released inorganic phosphate was determined by a colometric assay in 96-well plates ([Goffeau and Dufour, 1988]; [Decottignies et al., 1994]; [Wada et al., 2002]). The difference of both assays ( ± OM) corresponds to the specific ATPase activity of Pdr5 ([Ernst et al., 2008]).

H69AR cells = experiment: CellTiter-Glo cell viability assay (cytotoxicity), H69AR; assay type: cell-based; conditions: Homo sapiens, 48 h, MRP1-expressing, mean ± SEM
Description: (§1) The human lung adenocarcinoma cell line A549 was cultured in DMEM medium supplemented with 10% fetal bovine serum (FBS), 100 U/mL penicillin and 100 μg/mL streptomycin. P-gp-expressing human colon adenocarcinoma cells HCT-15 were cultured in RPMI 1640 medium supplemented with 10% FBS, 100 U/mL penicillin and 100 μg/mL streptomycin. BCRP-expressing MCF-7/MX human breast adenocarcinoma cells were cultured in DMEM medium supplemented with 10% FBS, 100 U/mL penicillin and 100 μg/mL streptomycin. MRP1-expressing H69AR human small cell lung cancer cells were cultured in RPMI 1640 medium (ATCC modification) supplemented with 20% FBS, 100 U/mL penicillin and 100 μg/mL streptomycin. All cancer cell lines employed have been systematically characterized regarding their respective ABC transporter expression profile ([Sachs et al., 2019]).
(§2) Cytotoxic activity of test compounds was analyzed after 48 h using the CellTiter-Glo Luminescent Cell Viability Assay published previously ([Weber et al., 2017]) in 384-well plates with the following cell densities: A549, MCF-7/MX: 2 × 10^3 cells/well; HCT-15: 3 × 10^3 cells/well; H69AR: 5 × 10^3 cells/well. Pipetting was conducted with the CyBi-Well 96-channel simultaneous pipettor (Analytik Jena AG, Jena, Germany). For generation of dose-response curves and calculation of IC50 values, the four-parameter logistic model was applied.

A549 cells = experiment: CellTiter-Glo cell viability assay (cytotoxicity), A549; assay type: cell-based, human; conditions: Homo sapiens, A549; 48 h, mean ± SEM
Description: as §1, §2

MCF-7/MX cells = experiment: CellTiter-Glo cell viability assay (cytotoxicity), MCF-7/MX; assay type: cell-based; conditions: Homo sapiens, MCF7/MX; 48 h, BCRP-expressing, mean ± SEM
Description: as §1, §2

[1] = Solubility observation in transporter assays; assay type: physicochemical; conditions: could not be employed at 50 μM
P-gp = target: T2, P-gp (Homo sapiens, UniProt P08183); experiment: P-gp transport assay (calcein-AM) in HCT-15 cells; assay type: cell-based
T2 construct: endogenous in cells; host or cells: HCT-15 human colon adenocarcinoma cells
T2 sequence (P08183 whole entry): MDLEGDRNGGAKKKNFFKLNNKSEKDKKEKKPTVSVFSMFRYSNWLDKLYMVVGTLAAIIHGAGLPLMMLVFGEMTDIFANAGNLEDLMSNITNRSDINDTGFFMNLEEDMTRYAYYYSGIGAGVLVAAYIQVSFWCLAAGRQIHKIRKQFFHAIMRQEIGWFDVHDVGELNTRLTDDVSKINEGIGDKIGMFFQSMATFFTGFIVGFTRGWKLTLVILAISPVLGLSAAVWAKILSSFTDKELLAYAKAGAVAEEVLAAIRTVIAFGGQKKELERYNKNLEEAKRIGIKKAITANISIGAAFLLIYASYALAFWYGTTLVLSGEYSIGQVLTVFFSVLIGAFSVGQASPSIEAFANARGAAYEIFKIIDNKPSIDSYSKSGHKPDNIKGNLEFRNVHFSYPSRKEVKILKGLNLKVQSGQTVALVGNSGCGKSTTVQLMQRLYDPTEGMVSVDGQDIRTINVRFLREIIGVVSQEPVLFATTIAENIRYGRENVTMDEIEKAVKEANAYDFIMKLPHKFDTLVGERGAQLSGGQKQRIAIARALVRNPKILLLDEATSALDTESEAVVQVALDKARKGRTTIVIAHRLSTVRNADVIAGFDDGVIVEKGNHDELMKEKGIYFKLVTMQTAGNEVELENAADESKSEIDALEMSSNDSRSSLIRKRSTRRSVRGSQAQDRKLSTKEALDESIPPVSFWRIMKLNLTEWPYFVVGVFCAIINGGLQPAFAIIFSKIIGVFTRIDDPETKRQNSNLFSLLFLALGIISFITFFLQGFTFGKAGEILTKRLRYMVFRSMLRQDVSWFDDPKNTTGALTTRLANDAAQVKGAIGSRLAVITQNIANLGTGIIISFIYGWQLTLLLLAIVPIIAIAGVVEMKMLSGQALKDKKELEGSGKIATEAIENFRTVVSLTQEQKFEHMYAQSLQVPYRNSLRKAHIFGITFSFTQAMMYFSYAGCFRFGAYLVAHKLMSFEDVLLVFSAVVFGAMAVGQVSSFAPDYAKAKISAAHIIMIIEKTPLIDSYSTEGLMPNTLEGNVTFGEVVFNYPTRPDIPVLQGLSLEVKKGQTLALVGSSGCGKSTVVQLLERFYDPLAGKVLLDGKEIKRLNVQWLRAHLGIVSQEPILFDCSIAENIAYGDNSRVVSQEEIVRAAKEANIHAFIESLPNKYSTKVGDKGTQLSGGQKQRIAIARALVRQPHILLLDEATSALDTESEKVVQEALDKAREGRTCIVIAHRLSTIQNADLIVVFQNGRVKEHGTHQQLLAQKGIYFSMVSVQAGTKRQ
Description: The transport of calcein-AM by P-gp and its modulation by test compounds was analyzed in the P-gp-expressing HCT-15 cell line. 5 × 10^4 cells were seeded in black 96-well plates and incubated at 37°C and 5% CO2 for 24 h. The culture medium was removed and replaced by Hank’s balanced salt solution supplemented with 10 mM HEPES. Test compounds, 2.5 μM PSC833 (positive control) or 0.5% DMSO (negative control) were added in triplicates and incubated for 30 min at 37°C and 5% CO2. The substrate calcein-AM was added (final concentration 0.5 μM) and the fluorescence (excitation 485 nm, emission 520 nm) was measured over 3 h with the Infinite m1000 pro microplate reader (Tecan Group AG, Männedorf, Switzerland) at 37°C. The transport activity of P-gp was analyzed by determining the slope of the linear part of the fluorescence-time curve (0–30 min) using linear regression. Normalization of the data to PSC833 (100% inhibition) and DMSO (0% inhibition) was performed.

BCRP = target: T3, BCRP (Homo sapiens, UniProt Q9UNQ0); experiment: BCRP transport assay (Hoechst 33342) in MCF-7/MX cells; assay type: cell-based
T3 construct: endogenous in cells; host or cells: MCF-7/MX human breast adenocarcinoma cells (mitoxantrone-selected)
T3 sequence (Q9UNQ0 1-655): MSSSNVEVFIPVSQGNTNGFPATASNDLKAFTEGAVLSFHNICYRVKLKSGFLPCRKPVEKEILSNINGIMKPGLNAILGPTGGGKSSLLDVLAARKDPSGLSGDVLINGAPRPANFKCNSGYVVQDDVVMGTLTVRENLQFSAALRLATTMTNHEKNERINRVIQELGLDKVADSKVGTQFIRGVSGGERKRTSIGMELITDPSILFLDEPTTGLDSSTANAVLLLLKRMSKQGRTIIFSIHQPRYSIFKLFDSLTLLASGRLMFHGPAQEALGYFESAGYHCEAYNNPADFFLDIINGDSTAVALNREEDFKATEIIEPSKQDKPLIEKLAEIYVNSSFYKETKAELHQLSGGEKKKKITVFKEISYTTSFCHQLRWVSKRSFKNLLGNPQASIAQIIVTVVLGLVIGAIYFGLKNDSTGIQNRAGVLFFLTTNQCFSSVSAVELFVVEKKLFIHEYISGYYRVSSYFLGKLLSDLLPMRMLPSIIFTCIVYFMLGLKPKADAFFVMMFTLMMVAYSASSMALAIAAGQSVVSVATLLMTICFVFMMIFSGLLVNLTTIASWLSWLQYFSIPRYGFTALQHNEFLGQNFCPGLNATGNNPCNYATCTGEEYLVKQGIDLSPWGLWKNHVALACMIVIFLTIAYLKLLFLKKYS
Description: Breast cancer resistance protein transport activity was determined in the BCRP-expressing MCF-7/MX cell line. Hoechst 33342 was applied as transporter substrate and 1 μM Ko143 as positive control or 0.5% DMSO as negative control and the assay was performed according to the P-gp assay. Fluorescence was measured at an excitation wavelength of 355 nm and emission wavelength of 460 nm. The transport activity of BCRP was analyzed by determining the plateau of the fluorescence-time curve by using non-linear regression (one-phase exponential fit). Normalization of the data to Ko143 (100% inhibition) and DMSO (0% inhibition) was performed.

HCT-15 cells = experiment: CellTiter-Glo cell viability assay (cytotoxicity), HCT-15; assay type: cell-based; conditions: Homo sapiens, 48 h, P-gp expressing, mean ± SEM
Description: as §1, §2

T1 sequence (P33302 whole entry): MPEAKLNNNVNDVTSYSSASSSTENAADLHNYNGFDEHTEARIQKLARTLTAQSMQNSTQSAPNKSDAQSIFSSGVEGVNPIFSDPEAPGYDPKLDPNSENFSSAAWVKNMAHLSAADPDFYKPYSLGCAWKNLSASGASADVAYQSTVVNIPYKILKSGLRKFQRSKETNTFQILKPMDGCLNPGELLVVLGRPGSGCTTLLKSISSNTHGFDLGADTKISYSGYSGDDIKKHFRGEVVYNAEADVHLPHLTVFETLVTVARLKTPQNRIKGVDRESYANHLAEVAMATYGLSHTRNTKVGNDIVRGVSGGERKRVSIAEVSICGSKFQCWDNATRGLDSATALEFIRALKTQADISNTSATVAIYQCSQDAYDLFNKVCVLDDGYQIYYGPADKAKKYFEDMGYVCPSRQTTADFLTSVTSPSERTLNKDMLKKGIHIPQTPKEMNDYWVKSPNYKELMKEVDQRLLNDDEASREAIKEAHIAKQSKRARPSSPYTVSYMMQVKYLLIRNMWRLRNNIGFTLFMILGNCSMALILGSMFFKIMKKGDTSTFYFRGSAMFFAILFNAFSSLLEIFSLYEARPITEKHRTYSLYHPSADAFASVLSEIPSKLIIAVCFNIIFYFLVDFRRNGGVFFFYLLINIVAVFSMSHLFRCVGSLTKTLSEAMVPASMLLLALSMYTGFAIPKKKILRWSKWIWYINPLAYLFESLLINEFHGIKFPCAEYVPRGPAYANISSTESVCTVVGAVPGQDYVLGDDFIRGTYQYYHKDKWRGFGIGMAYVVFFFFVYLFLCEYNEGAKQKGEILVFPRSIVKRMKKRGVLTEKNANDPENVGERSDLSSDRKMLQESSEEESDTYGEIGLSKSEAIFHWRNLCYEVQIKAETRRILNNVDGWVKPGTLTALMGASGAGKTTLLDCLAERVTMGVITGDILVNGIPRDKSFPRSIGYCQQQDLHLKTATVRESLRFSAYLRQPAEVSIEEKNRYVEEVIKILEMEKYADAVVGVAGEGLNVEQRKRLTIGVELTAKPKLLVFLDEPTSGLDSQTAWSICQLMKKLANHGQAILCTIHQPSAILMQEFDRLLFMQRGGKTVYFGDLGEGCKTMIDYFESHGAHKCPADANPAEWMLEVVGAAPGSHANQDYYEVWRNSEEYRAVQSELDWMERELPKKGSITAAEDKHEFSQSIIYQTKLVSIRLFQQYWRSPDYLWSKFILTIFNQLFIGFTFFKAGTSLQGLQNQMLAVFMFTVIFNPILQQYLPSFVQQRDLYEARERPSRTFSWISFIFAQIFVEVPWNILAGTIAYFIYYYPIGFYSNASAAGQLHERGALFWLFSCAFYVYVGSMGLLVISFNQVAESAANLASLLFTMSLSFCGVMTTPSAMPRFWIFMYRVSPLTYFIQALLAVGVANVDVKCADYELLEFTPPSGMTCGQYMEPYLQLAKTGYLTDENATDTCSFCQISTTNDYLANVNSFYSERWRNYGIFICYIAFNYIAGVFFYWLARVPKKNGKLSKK

SMILES: O=c1oc2c(O)c(O)cc3c(=O)oc4c(O)c(O)cc1c4c23 [Ellagic acid, ellagic acid]
- ATPase activity of Pdr5 WT inhibited to (initial screen) (Pdr5): 56%
- ATPase activity of Pdr5 WT inhibited to (initial screen) (Pdr5; listed as ellagic acid): 50%
- IC50 (H69AR cells): > 50 µM
- IC50 (A549 cells): > 50 µM
- IC50 (MCF-7/MX cells): > 50 µM
- Solubility (in words) [1]: low solubility
- Inhibition of P-gp (in words) (P-gp): did not display any inhibitory activity
- Inhibition of BCRP (in words) (BCRP): did not display any inhibitory activity
- IC50 (HCT-15 cells): > 50 µM

Source: publication PMC6476959, “Novel 3,4-Dihydroisocoumarins Inhibit Human P-gp and BCRP in Multidrug Resistant Tumors and Demonstrate Substrate Inhibition of Yeast Pdr5” (Frontiers in Pharmacology, 2019)
